# Laboratory results from patent US9428508B2, “2,4-diamino-6,7-dihydro-5H-pyrrolo[2,3]pyrimidine derivatives as FAK/Pyk2 inhibitors” (Centaurus BioPharma Co., Ltd., priority 2011, dated 2016).
# pIC50: −log10 of the molar value.
# What was measured:
# [1] = molecular target: FAK (Homo sapiens (Human), UniProt Q05397); test: Biochemical assay for FAK activity (LANCE TR-FRET, ULight-poly Glu,Ala,Tyr substrate); details: GST-tagged FAK, 120 min reaction
# In short: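 GST-tagged FAK (2.5 nM working stock) with ULight-poly Glu,Ala,Tyr (666 nM stock) and ATP (33.3 μM stock) in Tris pH 7.5/MgCl2/DTT/CHAPS buffer with BSA, 120 min; EDTA-quenched. Phosphorylation read by TR-FRET with Eu-anti-phosphotyrosine (PY20) antibody after 60 min. Compounds tested as 12-point 3-fold dilutions.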
# [2] = molecular target: PYK2 (Homo sapiens (Human), UniProt Q14289); test: Biochemical assay for PYK2 activity (LANCE TR-FRET, ULight-poly Glu,Ala,Tyr substrate); details: GST-tagged PYK2, 40 min reaction
# Chain of PYK2 (Q14289 whole entry): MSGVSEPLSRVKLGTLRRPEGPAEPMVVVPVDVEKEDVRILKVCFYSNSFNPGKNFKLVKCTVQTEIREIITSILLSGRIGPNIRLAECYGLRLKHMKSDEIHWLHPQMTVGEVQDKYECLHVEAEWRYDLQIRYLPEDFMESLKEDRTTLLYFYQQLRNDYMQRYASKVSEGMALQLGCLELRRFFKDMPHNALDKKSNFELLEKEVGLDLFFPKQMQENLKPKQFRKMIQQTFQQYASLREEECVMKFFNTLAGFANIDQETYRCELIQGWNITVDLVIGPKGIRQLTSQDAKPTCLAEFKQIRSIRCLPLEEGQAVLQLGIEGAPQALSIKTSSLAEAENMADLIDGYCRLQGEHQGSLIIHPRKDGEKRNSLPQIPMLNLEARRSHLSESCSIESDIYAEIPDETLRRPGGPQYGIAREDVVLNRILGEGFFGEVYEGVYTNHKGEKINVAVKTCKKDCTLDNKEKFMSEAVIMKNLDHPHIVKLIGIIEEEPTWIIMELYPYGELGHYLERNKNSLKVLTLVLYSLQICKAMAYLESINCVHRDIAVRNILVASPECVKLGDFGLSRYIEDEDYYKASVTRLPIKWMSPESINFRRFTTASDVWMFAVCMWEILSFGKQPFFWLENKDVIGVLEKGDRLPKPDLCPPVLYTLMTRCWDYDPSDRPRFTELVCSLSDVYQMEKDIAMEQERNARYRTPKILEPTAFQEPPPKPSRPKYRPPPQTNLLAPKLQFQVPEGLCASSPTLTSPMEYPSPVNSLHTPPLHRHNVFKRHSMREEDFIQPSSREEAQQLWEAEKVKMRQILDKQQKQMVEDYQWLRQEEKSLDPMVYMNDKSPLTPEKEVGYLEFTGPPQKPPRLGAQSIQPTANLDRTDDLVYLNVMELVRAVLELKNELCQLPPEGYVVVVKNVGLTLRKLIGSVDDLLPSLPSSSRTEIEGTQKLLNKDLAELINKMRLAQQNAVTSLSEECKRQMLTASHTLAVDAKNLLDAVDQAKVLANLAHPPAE
# In short: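 GST-tagged human PYK2 (2 nM working stock) with ULight-poly Glu,Ala,Tyr (1:1:1) peptide (666 nM working stock) and ATP (46.6 μM working stock) in 40 mM Tris pH 7.5, MgCl2, 1 mM DTT, 1 mM CHAPS; 40 min reaction, EDTA quench. Phosphotyrosine read by LANCE Eu-anti-phosphotyrosine (PY20) TR-FRET after 60 min; 12-point 3-fold compound dilutions.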
# Chain of FAK (Q05397 whole entry): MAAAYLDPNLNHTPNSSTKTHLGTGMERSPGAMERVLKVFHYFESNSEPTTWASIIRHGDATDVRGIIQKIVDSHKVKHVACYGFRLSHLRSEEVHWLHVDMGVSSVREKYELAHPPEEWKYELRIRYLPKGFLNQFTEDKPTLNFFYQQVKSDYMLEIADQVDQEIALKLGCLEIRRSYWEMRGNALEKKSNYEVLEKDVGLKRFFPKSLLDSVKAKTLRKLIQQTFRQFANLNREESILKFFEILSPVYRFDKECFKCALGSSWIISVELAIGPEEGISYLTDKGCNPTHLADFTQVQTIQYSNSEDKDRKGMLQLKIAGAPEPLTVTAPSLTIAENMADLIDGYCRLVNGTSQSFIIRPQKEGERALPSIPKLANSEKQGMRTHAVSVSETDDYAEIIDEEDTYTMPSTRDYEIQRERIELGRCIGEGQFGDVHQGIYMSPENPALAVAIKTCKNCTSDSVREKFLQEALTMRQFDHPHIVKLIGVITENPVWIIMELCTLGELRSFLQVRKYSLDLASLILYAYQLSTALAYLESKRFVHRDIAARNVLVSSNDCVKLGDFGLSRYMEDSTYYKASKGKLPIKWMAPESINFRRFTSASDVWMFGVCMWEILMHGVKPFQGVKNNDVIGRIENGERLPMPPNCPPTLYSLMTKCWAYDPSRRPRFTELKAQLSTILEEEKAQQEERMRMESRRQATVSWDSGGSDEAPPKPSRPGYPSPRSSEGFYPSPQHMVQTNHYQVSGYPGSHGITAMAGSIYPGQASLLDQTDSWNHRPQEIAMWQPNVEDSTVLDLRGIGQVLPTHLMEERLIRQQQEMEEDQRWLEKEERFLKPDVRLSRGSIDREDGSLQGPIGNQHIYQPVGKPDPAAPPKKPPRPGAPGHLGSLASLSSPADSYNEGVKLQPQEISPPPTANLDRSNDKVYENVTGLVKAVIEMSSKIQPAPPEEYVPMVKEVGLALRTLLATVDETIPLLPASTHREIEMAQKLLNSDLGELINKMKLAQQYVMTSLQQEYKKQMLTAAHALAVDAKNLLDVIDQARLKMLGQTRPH
SMILES,pIC50 [1],pIC50 [2]
"COc1cc(N2CCOCC2)ccc1Nc1nc2c(c(Nc3ccccc3S(=O)(=O)C(C)C)n1)CCN2 [Example 100, N^4-(2-(isopropylsulfonyl)phenyl)-N^2-(2-methoxy-4-morpholinophenyl)-6,7-dihydro-5H-pyrrolo[2,3-d]pyrimidine-2,4-diamine]",> 7.70,> 7.30
"COc1cc(N2CCOCC2)ccc1Nc1nc2c(c(Nc3ccccc3S(=O)(=O)NC(C)C)n1)C(C)CN2 (centres unmarked) [Example 101, N-isopropyl-2-(2-(2-methoxy-4-morpholinophenylamino)-5-methyl-6,7-dihydro-5H-pyrrolo[2,3-d]pyrimidin-4-ylamino)benzenesulfonamide]",> 7.70,> 7.70
"CNC(=O)c1ccccc1Nc1nc(Nc2ccc(N3CCOCC3)cc2OC)nc2c1[C@@H](C)CN2 [Example 102, (R)-2-(2-(2-methoxy-4-morpholinophenylamino)-5-methyl-6,7-dihydro-5H-pyrrolo[2,3-d]pyrimidin-4-ylamino)-N-methylbenzamide]",> 7.70,> 7.30
"CCCNS(=O)(=O)c1ccccc1Nc1nc(Nc2ccc(N3CCOCC3)cc2OC)nc2c1C(C)(C)CN2 [Example 106, 2-(2-(2-methoxy-4-morpholinophenylamino)-5,5-dimethyl-6,7-dihydro-5H-pyrrolo[2,3-d]pyrimidin-4-ylamino)-N-propylbenzenesulfonamide]",> 7.70,> 7.70
"CCCCNS(=O)(=O)c1ccccc1Nc1nc(Nc2ccc(N3CCOCC3)cc2OC)nc2c1C(C)(C)CN2 [Example 110, N-butyl-2-(2-(2-methoxy-4-morpholinophenylamino)-5,5-dimethyl-6,7-dihydro-5H-pyrrolo[2,3-d]pyrimidin-4-ylamino)benzenesulfonamide]",> 7.70,> 7.70
"COc1cc(N2CCOCC2)ccc1Nc1nc2c(c(Nc3ccccc3S(=O)(=O)N(C)C)n1)C(C)(C)CN2 [Example 111, 2-(2-(2-methoxy-4-morpholinophenylamino)-5,5-dimethyl-6,7-dihydro-5H-pyrrolo[2,3-d]pyrimidin-4-ylamino)-N,N-dimethylbenzenesulfonamide]",> 7.70,> 7.70
"CCC(C)NS(=O)(=O)c1ccccc1Nc1nc(Nc2ccc(N3CCOCC3)cc2OC)nc2c1C(C)(C)CN2 (centres unmarked) [Example 112, N-sec-butyl-2-(2-(2-methoxy-4-morpholinophenylamino)-5,5-dimethyl-6,7-dihydro-5H-pyrrolo[2,3-d]pyrimidin-4-ylamino)benzenesulfonamide]",> 7.70,> 7.70
"COCCCNS(=O)(=O)c1ccccc1Nc1nc(Nc2ccc(N3CCOCC3)cc2OC)nc2c1C(C)(C)CN2 [Example 114, 2-(2-(2-methoxy-4-morpholinophenylamino)-5,5-dimethyl-6,7-dihydro-5H-pyrrolo[2,3-d]pyrimidin-4-ylamino)-N-(3-methoxypropyl)benzenesulfonamide]",> 7.70,> 7.70
"COCCNS(=O)(=O)c1ccccc1Nc1nc(Nc2ccc(N3CCOCC3)cc2OC)nc2c1C(C)(C)CN2 [Example 115, 2-(2-(2-methoxy-4-morpholinophenylamino)-5,5-dimethyl-6,7-dihydro-5H-pyrrolo[2,3-d]pyrimidin-4-ylamino)-N-(2-methoxyethyl)benzenesulfonamide]",> 7.70,> 7.70
"COc1cc(N2CCOCC2)ccc1Nc1nc2c(c(Nc3ccccc3S(=O)(=O)Nc3ccccc3)n1)C(C)(C)CN2 [Example 116, 2-(2-(2-methoxy-4-morpholinophenylamino)-5,5-dimethyl-6,7-dihydro-5H-pyrrolo[2,3-d]pyrimidin-4-ylamino)-N-phenylbenzenesulfonamide]",> 6.70,> 6.30
"COc1cc(N2CCOCC2)ccc1Nc1nc2c(c(Nc3ccccc3S(=O)(=O)NC(C)(C)C)n1)C(C)(C)CN2 [Example 117, N-tert-butyl-2-(2-(2-methoxy-4-morpholinophenylamino)-5,5-dimethyl-6,7-dihydro-5H-pyrrolo[2,3-d]pyrimidin-4-ylamino)benzenesulfonamide]",> 7.70,> 7.70

# The next lines start with the values.
pIC50 [1],pIC50 [2],SMILES
> 7.70,> 7.70,"CNS(=O)(=O)c1ccccc1Nc1nc(Nc2ccc(N3CCOCC3)cc2OC)nc2c1C(C)(C)CN2 [Example 103, 2-(2-(2-methoxy-4-morpholinophenylamino)-5,5-dimethyl-6,7-dihydro-5H-pyrrolo[2,3-d]pyrimidin-4-ylamino)-N-methylbenzenesulfonamide]"
> 7.70,> 7.70,"COc1cc(N2CCOCC2)ccc1Nc1nc2c(c(Nc3ccccc3S(=O)(=O)NC3CCC3)n1)C(C)(C)CN2 [Example 104, N-cyclobutyl-2-(2-(2-methoxy-4-morpholinophenylamino)-5,5-dimethyl-6,7-dihydro-5H-pyrrolo[2,3-d]pyrimidin-4-ylamino)benzenesulfonamide]"
> 7.70,> 7.70,"COc1cc(N2CCOCC2)ccc1Nc1nc2c(c(Nc3ccccc3S(=O)(=O)NC(C)C)n1)C(C)(C)CN2 [Example 105, N-isopropyl-2-(2-(2-methoxy-4-morpholinophenylamino)-5,5-dimethyl-6,7-dihydro-5H-pyrrolo[2,3-d]pyrimidin-4-ylamino)benzenesulfonamide]"
> 7.70,> 7.70,"COc1cc(N2CCOCC2)ccc1Nc1nc2c(c(Nc3ccccc3S(=O)(=O)NCC(C)C)n1)C(C)(C)CN2 [Example 107, N-isobutyl-2-(2-(2-methoxy-4-morpholinophenylamino)-5,5-dimethyl-6,7-dihydro-5H-pyrrolo[2,3-d]pyrimidin-4-ylamino)benzenesulfonamide]"
> 6.70,> 6.30,"COc1cc(N2CCOCC2)ccc1Nc1nc2c(c(Nc3ccccc3S(=O)(=O)NC3CCCC3)n1)C(C)(C)CN2 [Example 108, N-cyclopentyl-2-(2-(2-methoxy-4-morpholinophenylamino)-5,5-dimethyl-6,7-dihydro-5H-pyrrolo[2,3-d]pyrimidin-4-ylamino)benzenesulfonamide]"
> 6.70,> 6.70,"COc1cc(N2CCOCC2)ccc1Nc1nc2c(c(Nc3ccccc3S(=O)(=O)NC3CCCCC3)n1)C(C)(C)CN2 [Example 109, N-cyclohexyl-2-(2-(2-methoxy-4-morpholinophenylamino)-5,5-dimethyl-6,7-dihydro-5H-pyrrolo[2,3-d]pyrimidin-4-ylamino)benzenesulfonamide]"
> 7.70,> 7.70,"CCNS(=O)(=O)c1ccccc1Nc1nc(Nc2ccc(N3CCOCC3)cc2OC)nc2c1C(C)(C)CN2 [Example 113, N-ethyl-2-(2-(2-methoxy-4-morpholinophenylamino)-5,5-dimethyl-6,7-dihydro-5H-pyrrolo[2,3-d]pyrimidin-4-ylamino)benzenesulfonamide]"
> 7.30,> 7.30,"COc1cc(N2CCOCC2)ccc1Nc1nc2c(c(Nc3ccccc3S(=O)(=O)NCC3CC3)n1)C(C)(C)CN2 [Example 118, N-(cyclopropylmethyl)-2-(2-(2-methoxy-4-morpholinophenylamino)-5,5-dimethyl-6,7-dihydro-5H-pyrrolo[2,3-d]pyrimidin-4-ylamino)benzenesulfonamide]"
